Experimental data: publication PMC6038798, “Dissecting how modular polyketide synthase ketoreductases interact with acyl carrier protein-attached substrates” (Chemical Communications (Cambridge, England), 2017)

Experiments:
[1] = target: T1, mKRb (Mycobacterium ulcerans, UniProt Q6MZ72); experiment: isothermal titration calorimetry; format: binding
T1 construct: gene mlsB; excised B1-type ketoreductase domain of module 7 of MLSB; recombinant, purified
Excerpt: isothermal titration calorimetry on mKRb

[2] = target: T2, mKRa (Mycobacterium ulcerans, UniProt Q6MZA4); experiment: isothermal titration calorimetry; format: binding
T2 construct: gene mlsA1; excised A1-type ketoreductase domain of module 5 of MLSA1; recombinant, purified
Excerpt: isothermal titration calorimetry on mKRa

[3] = target: mKRb, B1-type ketoreductase (KR) domain from module 7 of MLSB of the mycolactone polyketide synthase (Mycobacterium ulcerans); experiment: ITC; ACP species titrated against the KR domain in the presence of excess NADP+ (oxidised cofactor); three repeat experiments
[4] = target: mKRb, B1-type ketoreductase (KR) domain from module 7 of MLSB of the mycolactone polyketide synthase (Mycobacterium ulcerans); experiment: ITC; ACP species injected into a solution of the KR domain in the presence of excess NADPH; three repeat experiments

Compound | Kd [1] [µM] | Kd [2] [µM] | Kd [3] [µM] | Kd [4] [µM] | stoichiometry N [4]
CC(C)(CO)[C@@H](O)C(=O)NCCC(=O)NCCS [compound 2, R-Pantetheine] | 1.2 ± 0.3 | 1.1 ± 0.04 | – | – | –
CC(C)(CO)[C@@H](O)C(=O)NCCC(=O)O [compound 3, Pantothenate] | 0.7 ± 0.1 | 0.7 ± 0.13 | – | – | –
CC(C)(CO)[C@@H](O)C(=O)O [compound 4, Pantoate] | 0.6 ± 0.1 | > 1000 | – | – | –
NCCS [compound 5, Cysteamine] | > 1000 | > 1000 | – | – | –
NCCC(=O)O [compound 6, β-Alanine] | 0.5 ± 0.09 | 0.97 ± 0.04 | – | – | –
CC(=O)NCCS [compound 7, N-Acetyl cysteamine] | 1.4 ± 0.3 | 1.03 ± 0.02 | – | – | –
Acetoacetyl-mACPb (1b) (domain or fragment) | – | – | 0.38 | – | –
apo mACPa, acyl carrier protein domain cognate to mKRa (module 5 of MLSA1), apo form (domain or fragment) | – | – | – | 2.2 | –
apo mACPb, acyl carrier protein domain cognate to mKRb (module 7 of MLSB), apo form (domain or fragment) | – | – | 2.2 | 2.6 | –
holo mACPa (1a) (domain or fragment) | – | – | – | 0.63 | –
holo mACPb (1a) (domain or fragment) | – | – | 0.75 | 0.61 | 1
β-Hydroxybutyryl-mACPb (1c) (domain or fragment) | – | – | – | 0.27 | –
